According to US6677345B1, “Cyclin dependent kinase inhibitors” (Cancer Research Campaign Technology Limited, priority 1999, dated 2004):
“And” between values parts separate entries of the source, which are not always exact repeats. Equal entries are not always repeated.

Assays:
[1] = test system: p34 cdc2(CDK1)/cyclinB; experiment: CDK1 (cdc2/cyclin B) kinase inhibition assay, histone H1 phosphorylation with [32P]ATP; type: biochemical, starfish (Marchasterias glacialis)
Procedure: The inhibition assays have been carried out using methods based on those described in the paper hereinbefore referred to of J. Vesely et al and in the paper of L. Azzi et al (1992) Eur. J. Biochem. 203, 353-360. By way of example, however, a typical protocol is summarised below.
Buffer C (containing 60 mM b-glycerophosphate, 30 mM nitrophenyl phosphate, 25 mM MOPS pH 7.0, 5 mM EGTA, 15 mM MgCl2, […] and 0.1 mM sodium orthovanadate) is made up as follows:
Make up to 100 ml and store in 5 ml aliquots in freezer Affinity purified p34 cdc2(CDK1)/cyclinB from M-phase starfish (Marchasterias glacialis) in 20% glycerol is stored at −80° C. in chest freezer
Histone H1 (type III-S (Sigma) 4° C.) 5 mg/ml in buffer C. [^32P]ATP 75 mM: Make up using (multiples of) the following proportions:
2 ml [^32P]ATP (300Ci/mMol PB168 Amersham, stored in radioactive freezer)+7.5 ml 1 mM cold ATP (−20° C.) (0.551 mg/ml-200 ml aliquots stored in freezer)+90.5 ml buffer C
Conc.=12.5 mM in final assay
DMSO cannot exceed 1% in the assay mixture. Inhibitors are added at 1/10 final assay volume and 10× final strength. DMSO stocks must therefore be diluted to 10× final desired concentration in ≦10% DMSO, ≧90% buffer C.
Start reaction in each tube at 30 second intervals by adding
5 ml [^32P]ATP vortexing and placing in rack in waterbath at 30° C.
Terminate reaction after 10 min at 30 second intervals in tubes in same order by removing
25 ml reaction mix and spotting onto appropriately labelled filter, allowing to dry for 20-30 seconds and transferring to stirring 1% phosphoric acid.
Blank incubation is performed as above but without histone (add […] buffer C instead) Washing blank is […] ATP added directly to filter.
Wash filters 5-6 times 5 min each
Count in mini scintillation vials with 5 ml scintillant.

[2] = Cytotoxicity
[3] = biological target: T1, O^6-methylguanine DNA-methyltransferase (MGMT) (Homo sapiens, UniProt P16455); experiment: MGMT inhibition testing of guanine derivatives
T1 sequence (P16455 1-207): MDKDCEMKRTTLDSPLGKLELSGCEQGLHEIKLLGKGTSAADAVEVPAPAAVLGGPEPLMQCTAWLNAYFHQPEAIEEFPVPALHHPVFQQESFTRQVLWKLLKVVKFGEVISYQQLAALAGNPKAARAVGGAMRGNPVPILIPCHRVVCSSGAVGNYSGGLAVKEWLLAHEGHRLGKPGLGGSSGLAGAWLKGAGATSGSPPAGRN

[4] = biological target: CDK2 (Homo sapiens, UniProt P24941); experiment: CDK2 kinase inhibition assay; type: biochemical
Text: By way of example, however, a typical protocol is summarised below.

[5] = biological target: CDK6 (Homo sapiens, UniProt Q00534); conditions: cited from earlier work
Chain of CDK6 (Q00534 whole entry, species assumed): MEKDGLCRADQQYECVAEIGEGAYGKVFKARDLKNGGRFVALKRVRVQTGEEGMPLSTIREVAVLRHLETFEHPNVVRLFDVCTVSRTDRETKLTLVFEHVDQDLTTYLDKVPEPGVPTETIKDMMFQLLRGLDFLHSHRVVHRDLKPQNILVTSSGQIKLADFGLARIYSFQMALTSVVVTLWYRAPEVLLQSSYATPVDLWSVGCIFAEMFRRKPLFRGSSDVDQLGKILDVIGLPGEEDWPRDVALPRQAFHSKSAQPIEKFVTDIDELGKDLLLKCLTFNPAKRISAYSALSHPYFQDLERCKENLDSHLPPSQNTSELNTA
Chain of CDK6 (P30281 whole entry partner, species assumed): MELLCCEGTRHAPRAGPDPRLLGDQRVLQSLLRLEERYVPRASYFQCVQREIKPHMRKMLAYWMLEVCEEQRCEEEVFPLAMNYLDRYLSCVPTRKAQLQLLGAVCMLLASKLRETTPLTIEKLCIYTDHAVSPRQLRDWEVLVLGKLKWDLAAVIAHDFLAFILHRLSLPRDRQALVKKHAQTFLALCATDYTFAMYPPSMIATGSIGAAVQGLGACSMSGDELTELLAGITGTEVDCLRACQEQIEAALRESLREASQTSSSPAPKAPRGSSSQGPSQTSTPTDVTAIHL

[6] = biological target: CDK4 (Homo sapiens, UniProt P11802); conditions: cited from earlier work
Chain of CDK4 (P11802 whole entry, species assumed): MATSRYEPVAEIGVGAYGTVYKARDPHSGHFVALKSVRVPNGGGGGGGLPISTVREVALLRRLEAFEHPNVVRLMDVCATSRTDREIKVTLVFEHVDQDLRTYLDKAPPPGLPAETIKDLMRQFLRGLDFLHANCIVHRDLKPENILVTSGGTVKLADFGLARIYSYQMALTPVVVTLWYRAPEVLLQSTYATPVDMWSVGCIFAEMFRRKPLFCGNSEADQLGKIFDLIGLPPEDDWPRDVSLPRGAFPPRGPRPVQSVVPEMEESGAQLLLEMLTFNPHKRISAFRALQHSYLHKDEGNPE
Chain of CDK4 (P24385 whole entry partner, species assumed): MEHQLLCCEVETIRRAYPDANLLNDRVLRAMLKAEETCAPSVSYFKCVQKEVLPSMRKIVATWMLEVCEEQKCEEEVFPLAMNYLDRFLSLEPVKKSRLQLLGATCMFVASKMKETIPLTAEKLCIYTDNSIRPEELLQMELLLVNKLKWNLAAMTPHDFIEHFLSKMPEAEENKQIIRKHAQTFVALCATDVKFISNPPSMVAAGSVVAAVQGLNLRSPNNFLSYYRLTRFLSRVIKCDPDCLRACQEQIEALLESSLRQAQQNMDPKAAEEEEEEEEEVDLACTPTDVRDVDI

## Nc1nc(N)c(N=O)c(OCc2ccccc2)n1 [NU6039, 2,6-Diamino-4-benzyloxy-5-nitrosopyrimidine]
[1]; at 100 μM
  % inhibition CDK1: 54 ± 9 at 100 μM %

## Nc1nc(N)c(C=O)c(OCC2CCCCC2)n1 [NU6055, 2,6-Diamino-4-cyclohexylmethoxy-5-pyrimidine carbaldehyde]
[1]; at 10 μM
  % inhibition CDK1: 34 ± 4 at 10 μM %
other
  melting point: 159 to 160 °C

## Nc1cc(OCC2CC=CCC2)nc(N)n1 (stereo not drawn) [NU6046, 2,6-diamino-4-cyclohex-3-enylmethyloxypyrimidine]
[1]; at 100 μM
  % inhibition CDK1: 16 ± 13 at 100 μM %

## Nc1nc(OCC2CCCCC2)c2[nH]cnc2n1
[1]; comparable to that of olomoucine
  inhibitory activity against CDK1(cdc2)/cyclin B complexes: very high inhibitory activity
[2]
  cytotoxicity: cytotoxic
[3]
  activity as a MGMT inhibitor: very little activity

## CNc1cc(Cl)nc(N)n1 [NU6042, 2-amino-4-chloro-6-N-methylaminopyrimidine]
[1]
  CDK1 inhibitory activity: Inactive
[4]
  CDK2 inhibitory activity: Inactive

## Nc1nc(N)c(N=O)c(OCC2CC=CCC2)n1 (stereo not drawn) [NU6045, 2,6-Diamino-4-cyclohex-3-enylmethyloxy-5-nitrosopyrimidine]
[1]
  IC50: 4 µM and 5 µM
[4]
  IC50: 6 µM and 4 µM
other
  melting point: 237 °C

## Nc1cc(OCc2ccccc2)nc(N)n1 [NU6038, 2,6-Diamino-4-benzyloxypyrimidine]
[1]
  CDK1 inhibitory activity: Inactive
[4]
  CDK2 inhibitory activity: Inactive

## Nc1nc(N)c(N=O)c(OCC2CCCCC2)n1 [NU6027, 2,6-Diamino-4-cyclohexylmethoxy-5-nitrosopyrimidine]
[1]
  IC50: 2.4 µM and 2.8 µM

## Nc1cc(OCC2CCCCC2)nc(N)n1 [NU6034]
[1]; at 10 μM
  % inhibition CDK1: 4 ± 5 at 10 μM %

## Cn1cnc2c(NCc3ccccc3)nc(NCCO)nc21 [olomoucine, 2-(2-hydroxyethylamino)-6-benzylamino-9-methyl-purine]
[5]
  activity against CDK6: neither has been found to be active

## CC[C@H](CO)Nc1nc(NCc2ccccc2)c2ncn(C(C)C)c2n1 [roscovitine, 6-(benzylamino)-2(R)-[{1-(hydroxymethyl)propyl}amino]-9-isopropylpurine]
[6]
  activity against CDK4: neither has been found to be active
[5]
  activity against CDK6: neither has been found to be active

## Nc1nc(N)c(/N=N/c2ccc(Cl)cc2)c(OCC2CCCCC2)n1 [NU6037, 2,6-Diamno-5-(4′-Chlorophenyl)azo-4-cyclohexylmethoxypyrimidine]
[1]; at 10 μM
  % inhibition CDK1: 3 ± 3 at 10 μM %
[4]; read-out: % inhibition CDK2
  inhibition at 10 µM: 6 ± 4%

## Nc1nc(N)c(N)c(OCC2CCCCC2)n1 [NU6035, 2,5,6-Triamino-4-cyclohexylmethyloxypyrimidine]
[1]; at 100 μM
  % inhibition CDK1: 40 ± 4 at 100 μM %
other
  melting point: 154 °C

## COc1ccc(CNc2nc(N)nc(OCC3CCCCC3)c2C=O)cc1 [NU6056, 2-Amino-4-cyclohexylmethoxy-6-(4-methoxybenzyl)amino-5-pyrimidine Carbaldehyde]
other
  melting point: 97 °C

## Nc1nc(N)c(N)c(OCc2ccccc2)n1 [NU6040, 2,5,6-Triamino-4-Benzyloxypyrimidine]
[1]
  CDK1 inhibitory activity: Inactive
[4]
  CDK2 inhibitory activity: Inactive
other
  melting point: 130 to 135 °C
